Assay results as given in publication PMC5378956, “Inhibition of delta-secretase improves cognitive functions in mouse models of Alzheimer's disease” (Nature Communications, 2017).
“Also recorded” adds a separate entry of the source.

What was measured:
[1] = NMR stability and thiol reactivity (cysteamine, β-mercaptoethanol); type: physicochemical
[2] = Single-dose pharmacokinetics, IV and oral; conditions: for serum concentration: all three animals
Description: Two months old CD-1 male mice were orally
serum was collected at indicated time points with each group of 3 mice (mean ± s.d.).

δ-secretase = target: T1, δ-secretase (Homo sapiens, UniProt Q99538); experiment: DTT and L-cysteine reversibility of δ-secretase inhibition; type: biochemical; conditions: 10 mM DTT or L-cysteine, inhibitor at its IC50
T1 construct: tested with purified active δ-secretase, IC50 values for the top 8 candidates were calculated; purchased Sino Biological (Beijing, China)
T1 sequence (Q99538 18-323 limits assumed): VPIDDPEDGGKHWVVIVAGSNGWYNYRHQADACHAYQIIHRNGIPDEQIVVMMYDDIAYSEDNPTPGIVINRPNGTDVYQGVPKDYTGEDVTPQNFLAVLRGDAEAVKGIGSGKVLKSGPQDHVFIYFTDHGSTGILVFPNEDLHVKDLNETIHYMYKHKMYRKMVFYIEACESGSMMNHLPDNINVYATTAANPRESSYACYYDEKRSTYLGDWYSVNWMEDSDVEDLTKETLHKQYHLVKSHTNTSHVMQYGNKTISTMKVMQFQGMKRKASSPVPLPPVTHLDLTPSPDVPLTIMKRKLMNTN

[3] = male, CD-1, mouse, in vivo, iv, 2 mg kg-1
[4] = male, CD-1, mouse, in vivo, po, 10 mg kg-1
[5] = male, CD-1, mouse, serum, iv, 2 mg/kg
[6] = male, CD-1, mouse, serum, po, 10 mg/kg

## Nc1ccc(N2CCOCC2)c2nonc12 [compound 11, 7-(morpholin-4-yl)-2,1,3-benzoxadiazol-4-amine]
[1]
  reaction with β-mercaptoethanol: did not react; also recorded: unreactive
[1]; presence or absence of cysteamine
  stability by NMR spectroscopy: stable
[2]; IV 2 mg kg-1, 8.00 h
  serum concentration: BLQ
[2]; IV 2 mg kg-1, 24.00 h
  serum concentration: BLQ
[2]; [3]
  concentration at 0.08 h: 230 ng/mL
  concentration at 0.5 h: 13.3 ng/mL
  concentration at 1 h: 3.5 ng/mL
  concentration at 2 h: 3.8 ng/mL
  concentration at 4 h: 3.1 ng/mL
[2]; [4]
  concentration at 0.5 h: 81.1 ng/mL
  concentration at 1 h: 27.2 ng/mL
  concentration at 2 h: 13.3 ng/mL
  concentration at 4 h: 11.6 ng/mL
  concentration at 8 h: 3.8 ng/mL
[2]; [5]
  AUC(0-inf): 61.2 ng·h/mL
  AUC(0-t): 61.1 ng·h/mL
  Cmax: 230 ng/mL
  MRT last: 18 min
  Vd: 10.8 L/kg
  clearance: 554 mL/min/kg
  half-life: 13.2 min
[2]; male, CD-1, mouse, serum, oral, 10 mg kg-1, F (oral bioavailability), mean, oral 10 mg kg-1 vs IV 2 mg kg-1
  bioavailability: 69%
[2]; [6]
  AUC(0-inf): 223 ng·h/mL
  AUC(0-t): 211 ng·h/mL
  CL/F: 824 mL/min/kg
  Cmax: 447 ng/mL
  MRT last: 69 min
  Tmax: 15 min
  Vd/F: 134 L/kg
  half-life: 139 min
[2]; oral 10 mg kg-1, 24.00 h
  serum concentration: BLQ
[2]; oral 10 mg kg-1 vs IV 2 mg kg-1
  F (oral bioavailability), mean: ~70%

## Cn1c(=O)[nH]c(=O)c2c1nc(S)n2CC(O)COc1ccc(Cl)cc1 (stereo not drawn) [compound 38]
δ-secretase
  recovery of δ-secretase activity on addition of reducing agents: regained a substantial amount of activity
